Among the data in PMC6792352, “Limited Chemical Structural Diversity Found to Modulate Thyroid Hormone Receptor in the Tox21 Chemical Library” (Environmental Health Perspectives, 2019) are CC50 values, retold here.

Where a name gives a salt, the structure may show the parent alone. Read-outs that look alike come from different tables or passages of the source.

One series relates to GH3-TRE-Luc cell line. The following applies: read-out: AC50 (uM) modified / 1000, viability, 1 nM T3 present, 24 h.
A short description of another series: in vitro. Particulars: rat, gh3-tre-luc cells, AC50 (uM) modified / 1000.

`CNCCCC12CCC(c3ccccc31)c1ccccc12` [Maprotiline]: the CC50 with GH3-TRE-Luc cell line (Tox21_110001=Tox21_110200) turned out to be 11.7 µM. The molecule further showed a CC50 at 24 h in the series “in vitro” of 6.11 µM.
On to `O=C(Nc1ccc(Cl)cc1)Nc1ccc(Cl)c(Cl)c1` [Triclocarban], for which the CC50 with GH3-TRE-Luc cell line (Tox21_110001=Tox21_112078) was found to be 3.75 µM; in the series with GH3-TRE-Luc cell line (Tox21_110001=Tox21_300481), 3.32 µM. Also, the CC50 at 24 h in “in vitro” turned out to be 6.61 µM.
On to `CC(C)(C)c1ccc(O)c(O)c1` [4-tert-Butylcatechol], for which, in the series on GH3-TRE-Luc cell line (Tox21_110001=Tox21_400003), the CC50 was found to be 49.3 µM. Moreover, the CC50 at 24 h in the series “in vitro” turned out to be 43 µM.
For `CCCCCCCCCCCCc1ccccc1O` [Dodecylphenol], the CC50 in the series on GH3-TRE-Luc cell line (Tox21_110001=Tox21_303360) was 15.3 µM. In addition, the CC50 at 24 h in “in vitro” came to 11.8 µM.
For the molecule `C(=NC1CCCCC1)=NC1CCCCC1` [Dicyclohexylcarbodiimide], in the series on GH3-TRE-Luc cell line (Tox21_110001=Tox21_303237), the CC50 is 49.8 µM. For the same molecule, the CC50 at 24 h in the series “in vitro” was more than 90 µM.
For the molecule `CC/C(=C(/CC)c1ccc(O)cc1)c1ccc(O)cc1` [Diethylstilbestrol], the CC50 in the series with GH3-TRE-Luc cell line (Tox21_110001=Tox21_300526) was 28.7 µM. The same molecule returned a CC50 at 24 h in the series “in vitro” of 55.5 µM.
In the case of `CCCCC/C=C\C/C=C\CCCCCCCC(=O)OC` [Methyl linoleate], the CC50 in the series on GH3-TRE-Luc cell line (Tox21_110001=Tox21_302917) worked out at 74 µM. Besides, the CC50 at 24 h in “in vitro” was more than 90 µM.
For `O=[N+]([O-])c1cc(N(CCO)CCO)ccc1NCCO` [HC Blue 2], the CC50 in the series on GH3-TRE-Luc cell line (Tox21_110001=Tox21_302947) worked out at 91.6 µM. Besides, in the series “in vitro”, the CC50 at 24 h is more than 90 µM.
Turning to `O=P(OC(CCl)CCl)(OC(CCl)CCl)OC(CCl)CCl` [Tris(1,3-dichloro-2-propyl) phosphate], the CC50 in the series on GH3-TRE-Luc cell line (Tox21_110001=Tox21_300194) is 36.6 µM. This molecule came in with a CC50 at 24 h in the series “in vitro” of 61.2 µM.
Consider `CC1=C(/C=C/C(C)=C/C=C/C(C)=C/CO)C(C)(C)CCC1` [Retinol], for which the CC50 with GH3-TRE-Luc cell line (Tox21_110001=Tox21_300287) was 85.7 µM. In the series “in vitro”, this molecule displayed a CC50 at 24 h of 63.5 µM.
As to `CC(CN1c2ccccc2Sc2ccccc21)N(C)C` (stereo not drawn) [Promethazine hydrochloride], the CC50 in the series on GH3-TRE-Luc cell line (Tox21_110001=Tox21_302878) worked out at 23 µM. In “in vitro”, this molecule registered a CC50 at 24 h of 12.2 µM.
As for `Cc1cc(N=Nc2ccccc2C)ccc1N` [2-Amino-5-azotoluene], the CC50 with GH3-TRE-Luc cell line (Tox21_110001=Tox21_300300) is 40.4 µM. Further, the CC50 at 24 h in “in vitro” amounted to 50.9 µM.
As for `C#CCOS(=O)OC1CCCCC1Oc1ccc(C(C)(C)C)cc1` (stereo not drawn) [Propargite], the CC50 in the series with GH3-TRE-Luc cell line (Tox21_110001=Tox21_300805) came to 7.01 µM. This molecule also came in with a CC50 at 24 h in the series “in vitro” of 5.83 µM.
For `Nc1ccc(O)cc1` [4-Aminophenol], the CC50 in the series on GH3-TRE-Luc cell line (Tox21_110001=Tox21_113242) is 9.32 µM; in the series with GH3-TRE-Luc cell line (Tox21_110001=Tox21_201030), 17.1 µM. Further, the CC50 at 24 h in “in vitro” turned out to be 16.6 µM.
`O=C1OC2(c3ccccc31)c1cc(I)c(O)c(I)c1Oc1c2cc(I)c(O)c1I` [Erythrosin B]: the CC50 with GH3-TRE-Luc cell line (Tox21_110001=Tox21_301634) turned out to be 19.8 µM. The CC50 at 24 h in the series “in vitro” worked out at 16.4 µM.
For the molecule `CC(C)[C@@]1(NC(=O)[C@@H]2C[C@@H]3c4cccc5[nH]cc(c45)C[C@H]3N(C)C2)O[C@@]2(O)[C@@H]3CCCN3C(=O)[C@H](Cc3ccccc3)N2C1=O` [Dihydroergocristine], the CC50 with GH3-TRE-Luc cell line (Tox21_110001=Tox21_113115) amounted to 21.9 µM. Also, the CC50 at 24 h in the series “in vitro” amounted to 21 µM.
For `CC[n+]1c(-c2ccccc2)c2cc(N)ccc2c2ccc(N)cc21` [Ethidium bromide], in the series with GH3-TRE-Luc cell line (Tox21_110001=Tox21_111123), the CC50 turned out to be 37.9 µM. Besides, the CC50 at 24 h in “in vitro” is 47.9 µM.
In the case of `O=C(Nc1cccc(C(F)(F)F)c1)c1cc(Br)cc(Br)c1O` [Fluorosalan], the CC50 with GH3-TRE-Luc cell line (Tox21_110001=Tox21_112749) turned out to be 3.92 µM. This molecule also returned a CC50 at 24 h in “in vitro” of 2.69 µM.
For the molecule `OCCOCCN1CCN(C(c2ccccc2)c2ccc(Cl)cc2)CC1` (stereo not drawn) [Hydroxyzine], the CC50 with GH3-TRE-Luc cell line (Tox21_110001=Tox21_302563) worked out at 16.6 µM. The molecule also came in with a CC50 at 24 h in the series “in vitro” of 18.1 µM.
Turning to `CC(=O)[C@H]1CC[C@H]2[C@@H]3CCC4=CC(=O)CC[C@]4(C)[C@H]3CC[C@]12C` [Progesterone], the CC50 with GH3-TRE-Luc cell line (Tox21_110001=Tox21_300307) amounted to 81.7 µM. Moreover, the CC50 at 24 h in “in vitro” was found to be 85.9 µM.
For `CN1[C@@H]2CC[C@H]1C[C@@H](OC(c1ccccc1)c1ccccc1)C2` [Benztropine], the CC50 in the series on GH3-TRE-Luc cell line (Tox21_110001=Tox21_111695) came to 13.8 µM. Further, in “in vitro”, the CC50 at 24 h worked out at 24.5 µM.
On to `C=CC(=O)OCCCCCCOC(=O)C=C` [1,6-Hexanediol diacrylate], for which, in the series on GH3-TRE-Luc cell line (Tox21_110001=Tox21_303168), the CC50 was found to be 46.1 µM. For the same molecule, the CC50 at 24 h in the series “in vitro” was determined as 57.6 µM.
Consider `CC1=C(/C=C/C(C)=C/C=C/C(C)=C/C(=O)Nc2ccc(O)cc2)C(C)(C)CCC1` [4-Hydroxyphenyl retinamide], for which the CC50 in the series on GH3-TRE-Luc cell line (Tox21_110001=Tox21_111007) was 6.39 µM. In the series “in vitro”, this molecule registered a CC50 at 24 h of 10 µM.
In the case of `CC(C)(C)c1ccc(O)c(C(C)(C)C)c1` [2,4-Di-tert-butylphenol], the CC50 in the series on GH3-TRE-Luc cell line (Tox21_110001=Tox21_300114) is 29.7 µM. This molecule also yielded a CC50 at 24 h in “in vitro” of 47.6 µM.
`CCC(CC)Nc1c([N+](=O)[O-])cc(C)c(C)c1[N+](=O)[O-]` [Pendimethalin]: the CC50 with GH3-TRE-Luc cell line (Tox21_110001=Tox21_300867) is more than 90 µM. Moreover, in the series “in vitro”, the CC50 at 24 h turned out to be 76.7 µM.
Turning to `CC(C)C[C@H](NC(=O)[C@H](Cc1ccccc1)NC(=O)c1cnccn1)B(O)O` [Bortezomib], in the series with GH3-TRE-Luc cell line (Tox21_110001=Tox21_112672), the CC50 was determined as 0.00954 µM. Moreover, in the series “in vitro”, the CC50 at 24 h is 0.0167 µM.
On to `Oc1c(Cl)cc(Cl)c(Cl)c1Cc1c(O)c(Cl)cc(Cl)c1Cl` [Hexachlorophene], for which the CC50 in the series with GH3-TRE-Luc cell line (Tox21_110001=Tox21_111099) came out at 14.8 µM; in the series on GH3-TRE-Luc cell line (Tox21_110001=Tox21_302741), 22.4 µM. Moreover, the CC50 at 24 h in the series “in vitro” is 17.1 µM.
Take `Oc1ccc(C(c2ccc(O)cc2)C(Cl)(Cl)Cl)cc1` [2,2-Bis(4-hydroxyphenyl)-1,1,1-trichloroethane]: the CC50 with GH3-TRE-Luc cell line (Tox21_110001=Tox21_300656) came out at 55.1 µM. The molecule also yielded a CC50 at 24 h in the series “in vitro” of 74.8 µM.
`O=c1[nH]c2ccccc2n1C1CCN(CCCC(c2ccc(F)cc2)c2ccc(F)cc2)CC1` [Pimozide]: the CC50 in the series with GH3-TRE-Luc cell line (Tox21_110001=Tox21_110224) stood at 7.02 µM. Further, the CC50 at 24 h in “in vitro” turned out to be 8.93 µM.
Regarding `Cc1c(C(=O)O)c(O)cc2c1C(=O)c1c(O)c([C@@H]3O[C@H](CO)[C@@H](O)[C@H](O)[C@H]3O)c(O)c(O)c1C2=O` [Carminic acid], in the series with GH3-TRE-Luc cell line (Tox21_110001=Tox21_300294), the CC50 was 56.2 µM. The CC50 at 24 h in “in vitro” worked out at 55.9 µM.
With `CC(COc1ccccc1)N(CCCl)Cc1ccccc1` (stereo not drawn) [Phenoxybenzamine hydrochloride], in the series with GH3-TRE-Luc cell line (Tox21_110001=Tox21_302978), the CC50 is 68.5 µM. The CC50 at 24 h in the series “in vitro” is 45 µM.
`O=[N+]([O-])C(Br)(CO)CO` [Bronopol]: the CC50 with GH3-TRE-Luc cell line (Tox21_110001=Tox21_112079) worked out at 21.8 µM. This molecule showed a CC50 at 24 h in the series “in vitro” of 22 µM.
Turning to `C=CC(=O)OCCOCCOCCOCCOC(=O)C=C` [Tetraethylene glycol diacrylate], in the series on GH3-TRE-Luc cell line (Tox21_110001=Tox21_202993), the CC50 stood at 17.8 µM. This molecule also gave a CC50 at 24 h in “in vitro” of 17.7 µM.
Regarding `CCc1cc(Cl)c(OC)c(C(=O)NC[C@@H]2CCCN2CC)c1O` [Eticlopride hydrochloride], the results for the CC50 with GH3-TRE-Luc cell line (Tox21_110001=Tox21_111229) and with GH3-TRE-Luc cell line (Tox21_110001=Tox21_113585) were 25.3 µM and 33.6 µM, respectively. Also, the CC50 at 24 h in “in vitro” was determined as 19.6 µM.
